Source: patent US8883173B2 (priority 2007, dated 2014)
Entries after “also recorded” stand apart in the source; their conditions may differ. Square brackets hold non-standard residues; d marks the D form. Ends that are not written are not given here. NMeV = CN[C@H](C(=O)O)C(C)C

What was measured:
[1] = tested on: sera from Map infected animals (anti-Map antibodies); format: binding, bovines and goats
[2] = tested on: IgA, IgM, IgG1 or IgG2 antibodies in sera of Map infected animals; format: binding, bovines
[3] = tested on: sera from M. avium subsp. avium-experimentally infected mouse; test: ELISA with sera from Mav experimentally infected mouse; format: binding; conditions: FIG. 4B
[4] = tested on: sera from Mav- or Mai-infected human patients; format: binding
[5] = tested on: sera from M. bovis infected bovine; format: binding; conditions: read at 414 nm

CCCCCCCCCCCCCCCCCCCC(=O)O [lipid moiety, eicosanoic acid, reference compound]
recognition by sera of Map-infected animals, compared with L5P [1]: poorly recognized

AcNH-DPhe-NMeVal-Ile-Phe-Ala (Ac-[dF][NMeV]IFA) [compound 10]
specific reaction with Map specific anti serum [1]: react specifically

AcNH-DPhe-NMeVal-Ile-Phe-Ala-OMe (Ac-[dF][NMeV]IFA-OMe; SMILES CC[C@H](C)[C@H](NC(=O)[C@H](C(C)C)N(C)C(=O)[C@@H](Cc1ccccc1)NC(C)=O)C(=O)N[C@@H](Cc1ccccc1)C(=O)N[C@@H](C)C(=O)OC) [Ac5P]
recognition by sera of Map-infected animals, compared with L5P [1]: recognized as efficiently as the L5P; also recorded: In some cases, the pentapeptide was even better recognized than the whole L5P

AcNH-DPhe-Val-Ile-Phe-Ala-OMe (Ac-[dF]VIFA-OMe; SMILES CC[C@H](C)[C@H](NC(=O)[C@@H](NC(=O)[C@@H](Cc1ccccc1)NC(C)=O)C(C)C)C(=O)N[C@@H](Cc1ccccc1)C(=O)N[C@@H](C)C(=O)OC) [compound 8]
specific reaction with Map specific anti serum [1]: react specifically

DPhe-NMeVal-Ile-Phe-Ala-OMe ([dF][NMeV]IFA-OMe) [compound 4]
antigenic response (ranking among analogues) [1]: best antigenic response
recognition by sera of Map-infected animals, compared with L5P [1]: recognized at least as efficiently
sensitivity for detection of Map-specific antibodies compared to L5P (1) [1]: higher sensitivity
specific reaction with Map specific anti serum [1]: react specifically

LipidC20-DPhe-NMeVal-Ile-Phe-Ala [compound 9]
specific reaction with Map specific anti serum [1]: react specifically

LipidC20-DPhe-NMeVal-Ile-Phe-Ala-OMe [L5P]
OD in ELISA [1]: above 1,5
specificity compared with PPD [1]: by far more specific than the PPD
anti-L5P IgA in sera [2]: no IgA was detected
anti-L5P IgG1 in sera [2]: present
anti-L5P IgG2 in sera [2]: present
anti-L5P IgM in sera [2]: present
reactivity with sera [3]: none was reacting
O.D. in ELISA [4]: below 0.2
O.D. in ELISA [5]: below 0.2
